Key:
[1] = tested on: full length SMN2 minigene mRNA containing SMN2 exon 7; experiment: SMN2 minigene mRNA splicing RT-qPCR assay in cultured cells; type: cell-based, human; conditions: Homo sapiens, HEK293-H; HEK293H cells stably transfected with SMN2-A minigene, 24 hours, 7-point concentration curve; concentration giving 1.5-fold full length SMN2 mRNA vs vehicle; read-out: EC1.5x for production of full length SMN2 mRNA
Procedure, shortened: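 HEK293H cells stably carrying SMN2-A minigene treated 24 h (37 °C) with compound, 7-point 3.16-fold dilution, duplicates. Multiplex RT-qPCR on lysate with exon 7/luciferase primers and exon 7–8 junction probe (minigene-specific). Full-length transcript normalised to GAPDH by modified ΔΔCt, expressed relative to vehicle-treated cells.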

[2] = tested on: Smn protein; experiment: Smn protein assay in cultured cells (SMN HTRF); type: cell-based, human; conditions: SMA patient fibroblast cells (GM03813), 48 hours; for EC1.5x for Smn protein expression: 7-point concentration curve, concentration producing 1.5 times Smn protein vs DMSO vehicle; for maximum fold (Fold) increase of Smn protein: 7-point concentration data, relative to vehicle control
Procedure, shortened: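 SMA patient fibroblasts, 5,000 per well in DMEM-10% FBS, exposed 48 h at 37° C. to a 7-point, 3.16-fold compound series in triplicate. RIPA lysates read by SMN HTRF (665/620 nm, overnight at room temperature); ΔF over blank expressed as fold of vehicle.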

Row | Compound | melting point [°C] | EC (1.5-fold) [1] [µM] | EC1.5x for Smn protein expression [2] | maximum fold (Fold) increase of Smn protein [2]
1 | Cn1cc2cc(-c3cc4ccc(N5CCNCC5)cc4c(=O)o3)ccc2n1 [Cpd 156, 3-(2-methyl-2H-indazol-5-yl)-7-(piperazin-1-yl)-1H-isochromen-1-one] | 268 to 270 | ≤ 0.1 | **** (an EC1.5×≦0.3 nM is indicated by four stars (****)) | ***** (a fold increase >1.65 is indicated by five stars (*****))
2 | COc1ccc(-c2cc3ccc(N4CCN[C@@H](C)C4)cc3c(=O)o2)c(F)c1 [Cpd 45, 3-(2-fluoro-4-methoxyphenyl)-7-[(3S)-3-methylpiperazin-1-yl]-1H-isochromen-1-one] | 167 to 168 | 0.1 to 0.3 | – | *** (a fold increase between >1.35 and ≦1.5 is indicated by three stars (***))
3 | C[C@@H]1CN(c2ccc3cc(-c4ccccn4)oc(=O)c3c2)C[C@H](C)N1 [Cpd 5, 7-[(3R,5S)-3,5-dimethylpiperazin-1-yl]-3-(pyridin-2-yl)-1H-isochromen-1-one] | 168 to 170 | 1 to 3 | – | * (A maximum fold increase of ≦1.2 is indicated by one star (*))
4 | Cc1cn2cc(-c3cc4ccc(N5CCN(C)CC5)cc4c(=O)o3)nc2cn1 [Cpd 122, 3-(6-methylimidazo[1,2-a]pyrazin-2-yl)-7-(4-methylpiperazin-1-yl)-1H-isochromen-1-one] | 279 to 285 | ≤ 0.1 | **** (an EC1.5×≦0.3 nM is indicated by four stars (****)) | ***** (a fold increase >1.65 is indicated by five stars (*****))
5 | Cc1cn2cc(-c3cc4ccc(N5CCN[C@@H](C)C5)cc4c(=O)o3)nc2c(C)n1 [Cpd 63, 3-(6,8-dimethylimidazo[1,2-a]pyrazin-2-yl)-7-[(3S)-3-methylpiperazin-1-yl]-1H-isochromen-1-one] | 325 to 327 | ≤ 0.1 | **** (an EC1.5×≦0.3 nM is indicated by four stars (****)) | ***** (a fold increase >1.65 is indicated by five stars (*****))
6 | Cc1cn2cc(-c3cc4ccc(N5C[C@@H](C)N(C)[C@@H](C)C5)cc4c(=O)o3)nc2cn1 [Cpd 131, 3-(6-methylimidazo[1,2-a]pyrazin-2-yl)-7-[(3R,5S)-3,4,5-trimethylpiperazin-1-yl]-1H-isochromen-1-one] | 279 to 284 | ≤ 0.1 | **** (an EC1.5×≦0.3 nM is indicated by four stars (****)) | ***** (a fold increase >1.65 is indicated by five stars (*****))
7 | CCCN1CCN(c2ccc3cc(-c4cn5cc(C)nc(C)c5n4)oc(=O)c3c2)CC1 [Cpd 82, 3-(6,8-dimethylimidazo[1,2-a]pyrazin-2-yl)-7-(4-propylpiperazin-1-yl)-1H-isochromen-1-one] | 244 to 246 | ≤ 0.1 | **** (an EC1.5×≦0.3 nM is indicated by four stars (****)) | ***** (a fold increase >1.65 is indicated by five stars (*****))
8 | Cc1cn2cc(-c3cc4ccc(C5CCN(C6COC6)CC5)cc4c(=O)o3)nc2c(C)n1 [Cpd 119, 3-(6,8-dimethylimidazo[1,2-a]pyrazin-2-yl)-7-[1-(oxetan-3-yl)piperidin-4-yl]-1H-isochromen-1-one] | 225 to 227 | 0.1 to 0.3 | *** (an EC1.5× between >0.3 nM and ≦1 nM is indicated by three stars (***)) | ***** (a fold increase >1.65 is indicated by five stars (*****))
9 | Cc1nc2cc(-c3cc4ccc(N5CCNCC5)cc4c(=O)o3)ccc2s1 [Cpd 106, 3-(2-methyl-1,3-benzothiazol-5-yl)-7-(piperazin-1-yl)-1H-isochromen-1-one] | 229 to 235 | 1 to 3 | – | * (A maximum fold increase of ≦1.2 is indicated by one star (*))
10 | Cc1nc(Cl)cn2cc(-c3cc4ccc(N5CCN(C)CC5)cc4c(=O)o3)nc12 [Cpd 100, 3-(6-chloro-8-methylimidazo[1,2-a]pyrazin-2-yl)-7-(4-methylpiperazin-1-yl)-1H-isochromen-1-one] | 291 to 296 | ≤ 0.1 | *** (an EC1.5× between >0.3 nM and ≦1 nM is indicated by three stars (***)) | ***** (a fold increase >1.65 is indicated by five stars (*****))
11 | O=c1oc(-c2nc3ccccc3s2)cc2ccc(N3CCNCC3)cc12 [Cpd 8, 3-(1,3-benzothiazol-2-yl)-7-(piperazin-1-yl)-1H-isochromen-1-one] | 324 to 326 | 3 to 30 | – | * (A maximum fold increase of ≦1.2 is indicated by one star (*))
12 | Cc1cn2cc(-c3cc4ccc(N5CCN(C(C)C)[C@@H](C)C5)cc4c(=O)o3)nc2c(C)n1 [Cpd 138, 3-(6,8-dimethylimidazo[1,2-a]pyrazin-2-yl)-7-[(3S)-3-methyl-4-(propan-2-yl)piperazin-1-yl]-1H-isochromen-1-one] | 266 to 271 | 0.1 to 0.3 | *** (an EC1.5× between >0.3 nM and ≦1 nM is indicated by three stars (***)) | **** (a fold increase between >1.5 and ≦1.65 is indicated by four stars (****))
13 | CN1CCN(c2ccc3cc(-c4ccc5nn(C)cc5c4)oc(=O)c3c2)CC1 [Cpd 157, 3-(2-methyl-2H-indazol-5-yl)-7-(4-methylpiperazin-1-yl)-1H-isochromen-1-one] | 239 to 240 | ≤ 0.1 | **** (an EC1.5×≦0.3 nM is indicated by four stars (****)) | **** (a fold increase between >1.5 and ≦1.65 is indicated by four stars (****))
14 | Cc1cn2cc(-c3cc4ccc(N5CCN(C(C)(C)C)CC5)cc4c(=O)o3)nc2c(C)n1 [Cpd 83, 7-(4-tert-butylpiperazin-1-yl)-3-(6,8-dimethylimidazo[1,2-a]pyrazin-2-yl)-1H-isochromen-1-one] | 300 to 302 | 0.1 to 0.3 | *** (an EC1.5× between >0.3 nM and ≦1 nM is indicated by three stars (***)) | **** (a fold increase between >1.5 and ≦1.65 is indicated by four stars (****))
15 | Cc1cn2cc(-c3cc4ccc(N5C[C@@H](C)N(CCO)[C@@H](C)C5)cc4c(=O)o3)nc2cn1 [Cpd 130, 7-[(3R,5S)-4-(2-hydroxyethyl)-3,5-dimethylpiperazin-1-yl]-3-(6-methylimidazo[1,2-a]pyrazin-2-yl)-1H-isochromen-1-one] | 241 to 245 | ≤ 0.1 | **** (an EC1.5×≦0.3 nM is indicated by four stars (****)) | **** (a fold increase between >1.5 and ≦1.65 is indicated by four stars (****))
16 | C[C@H]1CN(c2ccc3cc(-c4ccc5c(c4)OCCO5)oc(=O)c3c2)CCN1 [Cpd 35, 3-(2,3-dihydro-1,4-benzodioxin-6-yl)-7-[(3S)-3-methylpiperazin-1-yl]-1H-isochromen-1-one] | 175 to 177 | 0.3 to 1 | – | * (A maximum fold increase of ≦1.2 is indicated by one star (*))
